Measurements as given in ChEMBL document CHEMBL1136379, “Identification of potent and broad-spectrum antibiotics from SAR studies of a synthetic vancomycin analogue” (2003).
Converted amounts (≈) assume the structure as drawn.

Key:
Assay type in all cases: functional
Enterococcus faecium [1] = assay: Compound tested for Susceptibility of vancomycin-resistant Enterococcus faecium
Enterococcus faecium [2] = assay: Minimum inhibitory concentration against vancomycin-resistant Enterococcus faecium
Escherichia coli [3] = assay: Compound tested for Susceptibility of Escherichia coli (efflux mutant)
Escherichia coli [4] = assay: Compound tested for Susceptibility of Escherichia coli
Enterococcus faecalis = assay: Compound tested for Susceptibility of Enterococcus faecalis
Haemophilus influenzae [5] = assay: Compound tested for Susceptibility of Haemophilus influenzae (efflux mutant)
Haemophilus influenzae [6] = assay: Compound tested for Susceptibility of Haemophilus influenzae
Klebsiella pneumoniae = assay: Compound tested for Susceptibility of Klebsiella pneumoniae
Moraxella catarrhalis = assay: Compound tested for Susceptibility of Moraxella catarrhalis
Pseudomonas aeruginosa = assay: Compound tested for Susceptibility of Pseudomonas aeruginosa
Streptococcus pyogenes = assay: Compound tested for Susceptibility of Streptococcus pyogenes
Staphylococcus aureus [7] = assay: Compound tested for Susceptibility of Methicillin-resistant Staphylococcus aureus […]
Staphylococcus aureus [8] = assay: Compound tested for Susceptibility of Staphylococcus aureus
[9] = test system: Staphylococcus epidermidis; assay: Compound tested for Susceptibility of Methicillin-resistant Staphylococcus epidermidis (MRSE)
[10] = test system: Staphylococcus epidermidis; assay: Compound tested for Susceptibility of Staphylococcus epidermidis
Streptococcus pneumoniae [11] = assay: Compound tested for Susceptibility of Streptococcus pneumoniae (Penicillin-intermediate)
Streptococcus pneumoniae [12] = assay: Compound tested for Susceptibility of Streptococcus pneumoniae
Enterococcus faecium [13] = assay: Compound tested for Susceptibility of Enterococcus faecium

Compound	MIC (Enterococcus faecium [1]) [µg/mL]	MIC (Enterococcus faecium [2]) [µg/mL]	other results
CC(=O)N[C@@H](CN)C(=O)N[C@@H](Cc1ccccc1)C(=O)N1Cc2[nH]c3ccccc3c2C[C@H]1C(=O)NCC(O)CNC(=O)[C@@H]1Cc2c([nH]c3ccccc23)CN1C(=O)[C@H](Cc1ccccc1)NC(=O)[C@H](CN)NC(C)=O	18 (≈ 17.4 µM)	600 (≈ 578 µM)	
NC(=O)C[C@@H]1NC(=O)[C@H](NC(=O)OCC2c3ccccc3-c3ccccc32)Cc2ccc(cc2)Oc2c(O)ccc(CC(=O)O)c2NC1=O		300 (≈ 451 µM)	
CN[C@H](CC(C)C)C(=O)N[C@@H]1Cc2ccc(cc2)Oc2cc(ccc2O)C(C(=O)N[C@@H](CN)C(=O)N[C@@H](Cc2ccccc2)C(=O)N2Cc3[nH]c4ccccc4c3C[C@H]2C(N)=O)NC(=O)[C@H](CC(N)=O)NC1=O (stereo not given in full)	150 (≈ 150 µM)	300 (≈ 300 µM)	
CN[C@H](CC(C)C)C(=O)N[C@@H](CN)C(=O)N[C@@H](Cc1ccccc1)C(=O)N1Cc2[nH]c3ccccc3c2C[C@H]1C(N)=O	> 1200	600 (≈ 1040 µM)	
CN[C@H](CC(C)C)C(=O)N[C@@H]1Cc2ccc(cc2)Oc2cc(ccc2O)C(C(=O)N[C@@H](CN)C(=O)N[C@@H](Cc2ccccc2)C(=O)N2Cc3[nH]c4ccccc4c3C[C@H]2C(=O)NCC(O)CNC(=O)[C@@H]2Cc3c([nH]c4ccccc34)CN2C(=O)[C@H](Cc2ccccc2)NC(=O)[C@H](CN)NC(=O)C2NC(=O)[C@H](CC(N)=O)NC(=O)[C@H](NC(=O)[C@@H](CC(C)C)NC)Cc3ccc(cc3)Oc3cc2ccc3O)NC(=O)[C@H](CC(N)=O)NC1=O (stereo not given in full) [VANCOMYCIN ANALOGUE]	9 (≈ 4.38 µM)	600 (≈ 292 µM)	
CN[C@@H](CC(C)C)C(=O)N[C@@H]1Cc2ccc(cc2)Oc2cc(ccc2O)C(C(=O)N[C@@H](CN)C(=O)N[C@@H](Cc2ccccc2)C(=O)N2Cc3[nH]c4ccccc4c3C[C@H]2C(=O)NCCCC(O)CCCNC(=O)[C@@H]2Cc3c([nH]c4ccccc34)CN2C(=O)[C@H](Cc2ccccc2)NC(=O)[C@H](CN)NC(=O)C2NC(=O)[C@H](CC(N)=O)NC(=O)[C@H](NC(=O)[C@@H](CC(C)C)NC)Cc3ccc(cc3)Oc3cc2ccc3O)NC(=O)[C@H](CC(N)=O)NC1=O (stereo not given in full) [VANCOMYCIN ANALOGUE]	38 (≈ 18 µM)	600 (≈ 284 µM)	
CN[C@H](CC(C)C)C(=O)N[C@@H]1Cc2ccc(cc2)Oc2cc(ccc2O)C(C(=O)N[C@@H](CN)C(=O)N[C@@H](Cc2ccccc2)C(=O)N2Cc3[nH]c4ccccc4c3C[C@H]2C(=O)NCCC(O)CCNC(=O)[C@@H]2Cc3c([nH]c4ccccc34)CN2C(=O)[C@H](Cc2ccccc2)NC(=O)[C@H](CN)NC(=O)C2NC(=O)[C@H](CC(N)=O)NC(=O)[C@H](NC(=O)[C@@H](CC(C)C)NC)Cc3ccc(cc3)Oc3cc2ccc3O)NC(=O)[C@H](CC(N)=O)NC1=O (stereo not given in full)	18 (≈ 8.64 µM)	600 (≈ 288 µM)	
CNC(CC(C)C)C(=O)N[C@@H](CN)C(=O)N[C@@H](Cc1ccccc1)C(=O)N1Cc2[nH]c3ccccc3c2C[C@H]1C(=O)NCC(O)CNC(=O)[C@@H]1Cc2c([nH]c3ccccc23)CN1C(=O)[C@H](Cc1ccccc1)NC(=O)[C@H](CN)NC(=O)[C@@H](CC(C)C)NC (stereo not given in full)	18 (≈ 14.9 µM)	600 (≈ 497 µM)	MIC (Escherichia coli [3]): 16 µg/mL (≈ 13.3 µM); MIC (Escherichia coli [4]): 32 µg/mL (≈ 26.5 µM); MIC (Enterococcus faecalis): 8 µg/mL (≈ 6.63 µM); MIC (Haemophilus influenzae [5]): 16 µg/mL (≈ 13.3 µM); MIC (Haemophilus influenzae [6]): 96 µg/mL (≈ 79.5 µM); MIC (Klebsiella pneumoniae): > 128 µg/mL; MIC (Moraxella catarrhalis): 8 µg/mL (≈ 6.63 µM); MIC (Pseudomonas aeruginosa): 128 µg/mL (≈ 106 µM); MIC (Streptococcus pyogenes): 2 µg/mL (≈ 1.66 µM); MIC (Staphylococcus aureus [7]): 32 µg/mL (≈ 26.5 µM); MIC (Staphylococcus aureus [8]): 16 µg/mL (≈ 13.3 µM); MIC [9]: 8 µg/mL (≈ 6.63 µM); MIC [10]: 24 µg/mL (≈ 19.9 µM); MIC (Streptococcus pneumoniae [11]): 8 µg/mL (≈ 6.63 µM); MIC (Streptococcus pneumoniae [12]): 16 µg/mL (≈ 13.3 µM); MIC (Enterococcus faecium [13]): 4 µg/mL (≈ 3.31 µM)
CN[C@H](CC(C)C)C(=O)N[C@H]1C(=O)N[C@@H](CC(N)=O)C(=O)N[C@H]2C(=O)N[C@H]3C(=O)N[C@H](C(=O)N[C@H](C(=O)O)c4cc(O)cc(O)c4-c4cc3ccc4O)[C@H](O)c3ccc(c(Cl)c3)Oc3cc2cc(c3O[C@@H]2O[C@H](CO)[C@@H](O)[C@H](O)[C@H]2O[C@H]2C[C@](C)(N)[C@H](O)[C@H](C)O2)Oc2ccc(cc2Cl)[C@H]1O [VANCOMYCIN]	600 (≈ 414 µM)	600 (≈ 414 µM)	
CC(=O)N[C@@H](CN)C(=O)N[C@@H](Cc1ccccc1)C(=O)N1Cc2[nH]c3ccccc3c2C[C@H]1C(N)=O	1200 (≈ 2450 µM)	600 (≈ 1220 µM)	
